Measured values from the NIST ThermoML archive (doi:10.1021/je700152c).
Numbers after ± are expanded uncertainties.

Experiment: molar heat capacity at saturation pressure; xn = mol fraction of the nth substance listed

CCCCn1cc[n+](C)c1.Cc1ccc(S(=O)(=O)[O-])cc1 [1-butyl-3-methylimidazolium tosylate] + O
Conditions | molar heat capacity [J/K/mol]
246.29 K, Crystal, x1 = 0.3 | 181.97 ± 1.9
247.04 K, Crystal, x1 = 0.37 | 195.61 ± 2
247.05 K, Crystal, x1 = 0.83 | 303.46 ± 2.9
247.42 K, Crystal, x1 = 0.3 | 183.98 ± 1.9
248.02 K, Metastable crystal, x1 = 0.83 | 322.49 ± 3.1
248.32 K, Crystal, x1 = 0.37 | 197.76 ± 2
248.55 K, Crystal, x1 = 0.3 | 185.99 ± 1.9
249.21 K, Crystal, x1 = 0.83 | 306.59 ± 2.9
249.59 K, Crystal, x1 = 0.37 | 199.9 ± 2
249.68 K, Crystal, x1 = 0.3 | 188.1 ± 1.9
249.95 K, Metastable crystal, x1 = 0.83 | 325.36 ± 3.1
250.8 K, Crystal, x1 = 0.3 | 190.22 ± 2
250.86 K, Crystal, x1 = 0.37 | 202.18 ± 2
251.37 K, Crystal, x1 = 0.83 | 309.46 ± 2.9
251.87 K, Metastable crystal, x1 = 0.83 | 328.49 ± 3.1
251.91 K, Crystal, x1 = 0.3 | 192.75 ± 2
252.13 K, Crystal, x1 = 0.37 | 204.32 ± 2.1
253.03 K, Crystal, x1 = 0.3 | 194.97 ± 2
253.39 K, Crystal, x1 = 0.37 | 206.85 ± 2.1
253.52 K, Crystal, x1 = 0.83 | 312.59 ± 2.9
253.79 K, Metastable crystal, x1 = 0.83 | 331.88 ± 3.1
254.13 K, Crystal, x1 = 0.3 | 197.41 ± 2
254.64 K, Crystal, x1 = 0.37 | 209.37 ± 2.1
255.24 K, Crystal, x1 = 0.3 | 200.05 ± 2
255.66 K, Crystal, x1 = 0.83 | 315.71 ± 2.9
255.7 K, Metastable crystal, x1 = 0.83 | 335.27 ± 3.1
255.89 K, Crystal, x1 = 0.37 | 212.02 ± 2.1
256.33 K, Crystal, x1 = 0.3 | 202.69 ± 2.1
257.13 K, Crystal, x1 = 0.37 | 214.67 ± 2.1
257.42 K, Crystal, x1 = 0.3 | 205.55 ± 2.1
257.6 K, Metastable crystal, x1 = 0.83 | 339.18 ± 3.1
257.79 K, Crystal, x1 = 0.83 | 318.84 ± 3.1
258.37 K, Crystal, x1 = 0.37 | 217.57 ± 2.1
258.51 K, Crystal, x1 = 0.3 | 208.4 ± 2.1
259.5 K, Metastable crystal, x1 = 0.83 | 342.83 ± 3.1
259.59 K, Crystal, x1 = 0.3 | 211.36 ± 2.1
259.6 K, Crystal, x1 = 0.37 | 220.6 ± 2.3
259.92 K, Crystal, x1 = 0.83 | 322.23 ± 3.1
260.66 K, Crystal, x1 = 0.3 | 214.43 ± 2.1
260.83 K, Crystal, x1 = 0.37 | 223.76 ± 2.3
261.38 K, Metastable crystal, x1 = 0.83 | 346.22 ± 3.1
261.73 K, Crystal, x1 = 0.3 | 217.6 ± 2.2
262.04 K, Crystal, x1 = 0.83 | 325.62 ± 3.1
262.05 K, Crystal, x1 = 0.37 | 227.04 ± 2.3
262.8 K, Crystal, x1 = 0.3 | 221.09 ± 2.2
263.25 K, Metastable crystal, x1 = 0.83 | 349.61 ± 3.1
263.26 K, Crystal, x1 = 0.37 | 230.45 ± 2.3
263.85 K, Crystal, x1 = 0.3 | 224.58 ± 2.2
264.15 K, Crystal, x1 = 0.83 | 329.27 ± 3.1
264.46 K, Crystal, x1 = 0.37 | 233.98 ± 2.3
264.9 K, Crystal, x1 = 0.3 | 228.28 ± 2.3
265.12 K, Metastable crystal, x1 = 0.83 | 353.26 ± 3.4
265.66 K, Crystal, x1 = 0.37 | 238.02 ± 2.4
265.94 K, Crystal, x1 = 0.3 | 232.09 ± 2.3
266.24 K, Crystal, x1 = 0.83 | 333.18 ± 3.1
266.85 K, Crystal, x1 = 0.37 | 241.93 ± 2.4
266.97 K, Crystal, x1 = 0.3 | 236 ± 2.3
266.99 K, Metastable crystal, x1 = 0.83 | 356.38 ± 3.4
268 K, Crystal, x1 = 0.3 | 240.55 ± 2.3
268.03 K, Crystal, x1 = 0.37 | 246.09 ± 2.4
268.33 K, Crystal, x1 = 0.83 | 337.35 ± 3.1
268.85 K, Metastable crystal, x1 = 0.83 | 360.03 ± 3.4
269.01 K, Crystal, x1 = 0.3 | 244.56 ± 2.4
269.2 K, Crystal, x1 = 0.37 | 250.51 ± 2.4
270.02 K, Crystal, x1 = 0.3 | 249.64 ± 2.4
270.37 K, Crystal, x1 = 0.37 | 255.18 ± 2.5
270.4 K, Crystal, x1 = 0.83 | 342.31 ± 3.1
270.7 K, Metastable crystal, x1 = 0.83 | 363.68 ± 3.4
271.02 K, Crystal, x1 = 0.3 | 254.4 ± 2.5
271.52 K, Crystal, x1 = 0.37 | 259.98 ± 2.5
272.01 K, Crystal, x1 = 0.3 | 258.84 ± 2.5
